From US20250353864A1, “INDAZOLE CONTAINING MACROCYCLES AND THEIR USE” (BLOSSOMHILL THERAPEUTICS, INC., priority 2022, published 2025) come the findings set out here.

Type in all cases: biochemical
Test [1] has as its target CLK1 (Homo sapiens (Human), UniProt P49759). Kind of test: Inhibition of CLK1 kinase activity evaluated at Nanosyn (ADP-Glo). The conditions noted are these: ADP-Glo luminescence. On the procedure:
(§1) Inhibition of CLK, CLK2, CLK3 and CLK4 Kinase Activity Evaluated at Nanosyn
(§2) Kinase protein and substrate were pre-diluted in the HEPES assay buffer (100 mM HEPES, pH 7.5, 0.01% Triton X-100, 0.1% BSA, 5 mM MgCl2, […] DTT, 10 Sodium Orthovanadate, […] Beta-Glycerophosphate) dispensed into 384 well plate (5 μL per well). Control samples (0%-inhibition in the absence of inhibitor, DMSO only) and 100%-inhibition (in the absence of enzyme) were assembled in replicates of six and were used to calculate %-inhibition in the presence of compounds. Test compounds were added to the protein samples by acoustic dispensing (Labcyte Echo550). Concentration of DMSO was equalized to 1% in all samples. Reactions were initiated by addition of ATP by acoustic dispensing (Labcyte Echo550) and incubated according to assay specific incubation time. After incubation. 5 μL of Promega ADP-Glo reagent was added and incubated for 40 minutes. After 40 minutes, 10 uL of Promega kinase detection reagent was added. After 10 min of incubation with Kinase detection reagent, the luminescence was read on microplate reader (Biotek Synergy).
(In general: In ADP-Glo the light output rises with the ADP produced.)

The target in test [2] is CLK2 (Homo sapiens (Human), UniProt P49760). Kind of test: Inhibition of CLK2 kinase activity evaluated at Nanosyn (ADP-Glo). The conditions noted are these: ADP-Glo luminescence. On the procedure: as §1, §2
The target of test [3] is CLK4 (Homo sapiens (Human), UniProt Q9HAZ1). Put plainly: Inhibition of CLK4 kinase activity evaluated at Nanosyn (ADP-Glo). The conditions noted are these: ADP-Glo luminescence. On the procedure:
as §1, §2

For test [4], the target named is CLK3 (Homo sapiens (Human), UniProt P49761). Kind of test: Inhibition of CLK3 kinase activity evaluated at Nanosyn (ADP-Glo). The conditions noted are these: ADP-Glo luminescence. On the procedure:
as §1, §2

The target of test [5] is EGFR WT (Homo sapiens (Human), UniProt P00533). Put plainly: HotSpot radiometric kinase assay (Reaction Biology), EGFR WT. The conditions noted are these: 10 μM ATP. In short, it runs like this: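 10 μM ATP (33P-labelled, final); 120 min RT; P81 filter capture, 0.75% phosphoric acid washes. Cpd preincubated ~20 min with enzyme/substrate, 20 mM Hepes pH 7.5, 10 mM MgCl2, 1% DMSO. IC50 by curve fit.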

The target of test [6] is EGFR L858R mutant (Homo sapiens (Human), UniProt P00533, L858R). Kind of test: HotSpot radiometric kinase assay, EGFR L858R mutant. The conditions noted are these: 10 μM ATP. In short, it runs like this:
(§3)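 Radiometric filter-binding read-out: incorporated 33P was retained on P81 ion-exchange paper after washing away unbound phosphate. Reactions ran 120 min at room temperature with 10 μM final ATP, following ~20 min compound preincubation in Hepes pH 7.5 buffer containing 1% DMSO. IC50 from fitted curves.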

Test [7] deals with EGFR L858R/T790M mutant (Homo sapiens (Human), UniProt P00533, L858R/T790M). Kind of test: HotSpot radiometric kinase assay, EGFR L858R/T790M mutant. The conditions noted are these: 10 μM ATP. The method in brief: as §3
Test [8] addresses EGFR Δ746-750/C797S mutant (Homo sapiens (Human), UniProt P00533, C797S/DEL746-750). Put plainly: HotSpot radiometric kinase assay, EGFR Δ746-750/C797S mutant. The conditions noted are these: 10 μM ATP. In short, it runs like this: as §3
In test [9] the target is EGFR Δ746-750 mutant (Homo sapiens (Human), UniProt P00533, DEL746-750). Kind of test: HotSpot radiometric kinase assay, EGFR Δ746-750 mutant. The conditions noted are these: 10 μM ATP. The method in brief: as §3
Test [10] deals with EGFR L858R/T790M/C797S mutant (Homo sapiens (Human), UniProt P00533, C797S/L858R/T790M). Put plainly: HotSpot radiometric kinase assay, EGFR L858R/T790M/C797S mutant. The conditions noted are these: 10 μM ATP. In short, it runs like this:
as §3

In test [11] the target is EGFR (D770_N771insNPG) (Homo sapiens (Human), UniProt P00533, INS770NPG). Kind of test: HotSpot radiometric kinase assay, EGFR (D770_N771insNPG). The conditions noted are these: 10 μM ATP, read-out: EGFR (Δ770_N771insNPG) IC50. The method in brief: as §3

Structures are written as SMILES. Where only a bound is given, the exact number is not on record here.

Chain of CLK1 (P49759 whole entry): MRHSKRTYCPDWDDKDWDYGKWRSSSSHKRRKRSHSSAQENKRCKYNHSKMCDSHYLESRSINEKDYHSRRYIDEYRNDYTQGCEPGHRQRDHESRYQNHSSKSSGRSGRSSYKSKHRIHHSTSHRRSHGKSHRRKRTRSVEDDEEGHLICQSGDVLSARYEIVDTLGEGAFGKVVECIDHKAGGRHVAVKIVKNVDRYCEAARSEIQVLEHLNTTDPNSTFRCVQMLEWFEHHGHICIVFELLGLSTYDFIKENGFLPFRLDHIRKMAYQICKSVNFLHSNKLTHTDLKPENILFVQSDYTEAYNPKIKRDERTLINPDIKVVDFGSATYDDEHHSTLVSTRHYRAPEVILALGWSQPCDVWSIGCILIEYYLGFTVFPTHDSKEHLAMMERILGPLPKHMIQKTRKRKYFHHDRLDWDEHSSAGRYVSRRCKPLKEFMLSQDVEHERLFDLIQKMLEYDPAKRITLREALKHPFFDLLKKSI
Chain of EGFR L858R/T790M/C797S mutant (P00533 25-1210 T790M/C797S/L858R): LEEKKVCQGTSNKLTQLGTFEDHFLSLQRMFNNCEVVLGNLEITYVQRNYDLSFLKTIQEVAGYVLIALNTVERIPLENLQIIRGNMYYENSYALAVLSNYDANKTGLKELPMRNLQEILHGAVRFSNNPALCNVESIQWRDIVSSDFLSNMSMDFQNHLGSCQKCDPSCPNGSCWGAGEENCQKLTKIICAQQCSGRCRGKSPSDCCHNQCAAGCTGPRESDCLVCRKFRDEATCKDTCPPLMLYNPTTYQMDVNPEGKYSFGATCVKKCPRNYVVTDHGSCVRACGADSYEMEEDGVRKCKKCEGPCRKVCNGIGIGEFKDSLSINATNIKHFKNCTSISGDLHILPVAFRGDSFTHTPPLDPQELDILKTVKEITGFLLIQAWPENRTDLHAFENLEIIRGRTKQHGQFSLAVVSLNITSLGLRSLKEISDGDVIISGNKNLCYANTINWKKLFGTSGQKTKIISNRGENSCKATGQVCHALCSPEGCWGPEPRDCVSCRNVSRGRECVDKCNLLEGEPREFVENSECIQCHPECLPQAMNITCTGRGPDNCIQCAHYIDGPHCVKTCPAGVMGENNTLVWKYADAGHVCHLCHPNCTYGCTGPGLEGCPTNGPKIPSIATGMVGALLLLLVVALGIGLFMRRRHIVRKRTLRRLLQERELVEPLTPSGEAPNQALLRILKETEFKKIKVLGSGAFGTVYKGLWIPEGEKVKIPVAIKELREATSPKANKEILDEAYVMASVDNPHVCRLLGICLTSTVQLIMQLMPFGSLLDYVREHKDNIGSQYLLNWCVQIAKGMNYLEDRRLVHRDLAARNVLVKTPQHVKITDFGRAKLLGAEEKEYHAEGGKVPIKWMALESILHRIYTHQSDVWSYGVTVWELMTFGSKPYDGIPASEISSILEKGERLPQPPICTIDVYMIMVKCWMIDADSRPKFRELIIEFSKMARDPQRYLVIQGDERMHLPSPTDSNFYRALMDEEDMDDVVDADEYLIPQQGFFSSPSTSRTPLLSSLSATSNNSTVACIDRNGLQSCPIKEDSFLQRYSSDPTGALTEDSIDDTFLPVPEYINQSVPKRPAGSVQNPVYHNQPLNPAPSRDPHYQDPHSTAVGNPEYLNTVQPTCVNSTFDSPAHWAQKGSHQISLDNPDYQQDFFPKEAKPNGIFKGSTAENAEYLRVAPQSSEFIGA
Chain of CLK4 (Q9HAZ1 whole entry): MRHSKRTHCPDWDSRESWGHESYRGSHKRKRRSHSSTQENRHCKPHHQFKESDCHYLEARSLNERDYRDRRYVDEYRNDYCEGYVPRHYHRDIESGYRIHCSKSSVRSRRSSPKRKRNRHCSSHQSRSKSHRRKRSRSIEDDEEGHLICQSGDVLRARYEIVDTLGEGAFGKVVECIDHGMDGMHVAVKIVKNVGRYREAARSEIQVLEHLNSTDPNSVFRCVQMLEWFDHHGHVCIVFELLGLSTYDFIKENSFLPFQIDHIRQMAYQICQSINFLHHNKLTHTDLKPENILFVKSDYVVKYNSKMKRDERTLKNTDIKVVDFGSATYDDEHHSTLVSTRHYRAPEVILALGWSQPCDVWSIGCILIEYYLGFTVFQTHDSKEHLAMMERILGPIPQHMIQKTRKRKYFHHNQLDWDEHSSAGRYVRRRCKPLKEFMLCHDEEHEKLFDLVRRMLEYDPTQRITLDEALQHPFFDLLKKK
Chain of EGFR (D770_N771insNPG) (P00533 other isoform, or with tags, fused parts or gaps del 1-668/ins NPG behind 770 limits assumed): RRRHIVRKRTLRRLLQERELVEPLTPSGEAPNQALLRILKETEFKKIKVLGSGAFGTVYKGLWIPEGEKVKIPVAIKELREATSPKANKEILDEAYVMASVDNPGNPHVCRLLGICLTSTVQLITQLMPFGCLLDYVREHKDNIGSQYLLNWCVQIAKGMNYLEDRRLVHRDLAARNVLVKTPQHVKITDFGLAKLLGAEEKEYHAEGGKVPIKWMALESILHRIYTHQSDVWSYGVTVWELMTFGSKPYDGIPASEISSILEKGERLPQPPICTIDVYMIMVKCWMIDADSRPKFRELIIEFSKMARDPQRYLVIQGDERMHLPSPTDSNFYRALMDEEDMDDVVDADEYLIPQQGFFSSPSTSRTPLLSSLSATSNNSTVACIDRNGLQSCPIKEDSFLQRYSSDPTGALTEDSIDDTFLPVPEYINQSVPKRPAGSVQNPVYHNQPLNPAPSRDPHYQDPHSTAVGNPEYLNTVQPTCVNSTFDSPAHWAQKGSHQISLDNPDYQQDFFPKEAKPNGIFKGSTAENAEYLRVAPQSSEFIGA
Chain of EGFR Δ746-750 mutant (P00533 other isoform, or with tags, fused parts or gaps del 1-668/del 746-750 limits assumed): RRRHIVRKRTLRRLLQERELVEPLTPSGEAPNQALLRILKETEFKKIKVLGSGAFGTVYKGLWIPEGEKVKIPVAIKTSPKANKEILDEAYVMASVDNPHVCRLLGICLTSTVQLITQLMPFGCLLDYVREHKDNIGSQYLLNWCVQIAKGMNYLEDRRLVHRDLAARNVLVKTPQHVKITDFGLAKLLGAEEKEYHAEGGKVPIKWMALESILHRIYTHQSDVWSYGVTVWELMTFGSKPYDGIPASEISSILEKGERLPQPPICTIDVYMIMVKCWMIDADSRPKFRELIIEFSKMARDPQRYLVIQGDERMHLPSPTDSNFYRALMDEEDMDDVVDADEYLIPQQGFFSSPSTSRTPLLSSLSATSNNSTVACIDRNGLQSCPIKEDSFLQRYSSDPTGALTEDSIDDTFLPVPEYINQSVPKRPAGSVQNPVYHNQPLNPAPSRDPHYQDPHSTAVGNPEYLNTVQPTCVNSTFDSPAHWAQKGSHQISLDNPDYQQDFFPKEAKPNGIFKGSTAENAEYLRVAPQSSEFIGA
Chain of EGFR WT (P00533 25-1210): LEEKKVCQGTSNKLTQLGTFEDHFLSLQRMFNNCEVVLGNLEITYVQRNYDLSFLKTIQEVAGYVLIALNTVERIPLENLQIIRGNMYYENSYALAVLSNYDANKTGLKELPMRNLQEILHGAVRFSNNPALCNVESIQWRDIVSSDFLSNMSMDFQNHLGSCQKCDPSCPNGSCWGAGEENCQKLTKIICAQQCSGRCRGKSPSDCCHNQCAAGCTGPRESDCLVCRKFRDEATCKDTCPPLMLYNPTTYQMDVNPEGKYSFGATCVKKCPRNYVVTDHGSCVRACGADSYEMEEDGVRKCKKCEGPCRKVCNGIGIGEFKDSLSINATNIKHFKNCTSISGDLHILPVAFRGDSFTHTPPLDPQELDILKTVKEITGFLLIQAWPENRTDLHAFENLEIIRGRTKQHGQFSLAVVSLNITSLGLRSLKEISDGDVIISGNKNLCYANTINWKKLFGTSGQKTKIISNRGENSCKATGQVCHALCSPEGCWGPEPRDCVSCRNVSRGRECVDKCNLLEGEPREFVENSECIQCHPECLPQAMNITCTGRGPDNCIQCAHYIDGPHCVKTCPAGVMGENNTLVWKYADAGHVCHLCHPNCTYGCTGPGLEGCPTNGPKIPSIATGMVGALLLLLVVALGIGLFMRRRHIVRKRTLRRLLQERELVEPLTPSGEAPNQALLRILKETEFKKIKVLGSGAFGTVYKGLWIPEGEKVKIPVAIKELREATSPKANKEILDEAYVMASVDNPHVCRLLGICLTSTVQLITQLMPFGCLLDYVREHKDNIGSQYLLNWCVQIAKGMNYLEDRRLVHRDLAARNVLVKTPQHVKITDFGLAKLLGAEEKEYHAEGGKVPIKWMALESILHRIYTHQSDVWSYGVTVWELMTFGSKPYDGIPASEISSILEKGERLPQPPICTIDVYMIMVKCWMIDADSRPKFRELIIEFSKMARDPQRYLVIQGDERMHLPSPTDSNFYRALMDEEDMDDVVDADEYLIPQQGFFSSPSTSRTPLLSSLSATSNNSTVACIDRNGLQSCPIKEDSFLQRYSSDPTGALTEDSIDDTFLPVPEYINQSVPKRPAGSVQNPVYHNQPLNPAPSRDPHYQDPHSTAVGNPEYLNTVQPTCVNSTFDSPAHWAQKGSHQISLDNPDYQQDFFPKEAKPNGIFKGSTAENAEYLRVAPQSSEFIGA
Chain of CLK3 (P49761 whole entry): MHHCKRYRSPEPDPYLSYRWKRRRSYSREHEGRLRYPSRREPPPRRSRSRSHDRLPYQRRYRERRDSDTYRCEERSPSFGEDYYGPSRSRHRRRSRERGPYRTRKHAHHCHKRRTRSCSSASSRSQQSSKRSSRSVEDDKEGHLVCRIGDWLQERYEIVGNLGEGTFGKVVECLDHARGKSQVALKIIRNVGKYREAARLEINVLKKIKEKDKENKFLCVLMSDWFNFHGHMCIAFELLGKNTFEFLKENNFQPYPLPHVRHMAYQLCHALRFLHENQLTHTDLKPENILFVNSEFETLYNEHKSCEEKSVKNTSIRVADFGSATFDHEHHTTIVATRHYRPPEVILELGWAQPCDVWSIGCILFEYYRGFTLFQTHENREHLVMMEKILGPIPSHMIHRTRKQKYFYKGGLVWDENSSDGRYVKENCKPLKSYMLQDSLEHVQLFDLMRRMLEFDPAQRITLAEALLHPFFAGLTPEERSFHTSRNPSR

A word on the IC50: it is the midpoint of a concentration-inhibition curve. Regarding `CCOc1c2c(nn1C)CN(C(C)=O)CCOc1c(cnn1C)-c1ccc3[nH]nc(c3c1)/C=C/2` [Example 294, 1-[(17E)-16-ethoxy-8,15-dimethyl-2,8,10,11,13,15-hexahydro-12H-3,5-ethenotripyrazolo[3,4-f:3′,4′-j:4″,3″- n][1,4]oxazacyclopentadecin-12-yl]ethan-1-one], the IC50 in [1] was 1.27 nM; in test [2], 3.25 nM; in test [3] it was 1.37 nM; in test [4], 1000 nM.

For `Cc1snc2c1/C=C/c1n[nH]c3ccc(cc13)-c1cnn(C)c1O[C@@H](C)CN(C)C2` [Example 158, (10S,17E)-8,10,12,16-tetramethyl-2,8,10,11,12,13-hexahydro-3,5-ethenodipyrazolo[3,4-j:4′,3′-n][1,2]thiazolo[3,4-f][1,4]oxazacyclopentadecine], the IC50 in test [1] was 0.14 nM; in test [2], 0.4 nM; in [3], 0.31 nM; in [4], 664 nM.

For `Cc1nn(C)c2c1/C=C/c1n[nH]c3ccc(cc13)-c1cnn(C)c1COCCO2` [Ex. 6, (17E)-8,14,16-trimethyl-2,8,9,11,12,14-hexahydro-3,5-etheno[1,4]dioxacyclopentadecino[11,10-c:15,14-c′:6,7-c″ ]tripyrazole], the IC50 in [1] amounted to 0.34 nM; in [2], 0.23 nM; in test [3], 0.52 nM; in test [4], 178 nM.

Take `CC(C)Oc1nn(CCO)c2c1/C=C/c1n[nH]c3ccc(cc13)-c1cnn(C)c1O[C@@H](C)CN(C)[C@H]2C` [Example 224, 2-{(10S,13S,17E)-8,10,12,13-tetramethyl-16-[(propan-2-yl)oxy]-2,8,10,11,12,13-hexahydro-14H-3,5-ethenotripyrazolo[3,4-f:3′,4′-j:4″,3″-n][1,4]oxazacyclopentadecin-14-yl}ethan-1-ol]: the IC50 in test [1] turned out to be 0.69 nM; in [2], 1.16 nM; in test [3], 1.46 nM; in test [4], 253 nM.

As for `C[C@H]1CN(C)Cc2c(c(C#N)nn2CCO)/C=C/c2n[nH]c3ccc(cc23)-c2cnn(C)c2O1` [Example 208, (10S,17E)-14-(2-hydroxyethyl)-8,10,12-trimethyl-2,10,11,12,13,14-hexahydro-8H-3,5-ethenotripyrazolo[3,4-f:3′,4′-j:4″,3″-n][1,4]oxazacyclopentadecine-16-carbonitrile], the IC50 amounted to 0.59 nM in test [1], 0.13 nM in [2], 1.53 nM in test [3] and 220 nM in test [4].

Consider `CCc1nn(CCO)c2c1/C=C/c1n[nH]c3ccc(cc13)-c1cnn(C)c1OCCCO2` [Ex. 23, 2-[(17E)-16-ethyl-8-methyl-2,8,11,12-tetrahydro-10H,14H-3,5-etheno[1,5]dioxacyclopentadecino[10,11-c:15,14-c′:6,7-c″]tripyrazol-14-yl]ethan-1-ol], for which the 50% inhibitory concentration (IC50) in test [5] was found to be 290 nM; in [6], 96.6 nM; in test [7] it was 13.1 nM; in [8] it was 44.5 nM; in test [9] it was 29.3 nM; in test [10], 22.5 nM. The IC50 in test [11] is 362 nM.

Regarding `CCOc1nn(CCO)c2c1/C=C/c1n[nH]c3cc(F)c(cc13)-c1c(C)nn(C)c1O[C@@H](C)CN(C(C)C)C2` [Example 239, 2-[(10S,17E)-16-ethoxy-19-fluoro-6,8,10-trimethyl-12-(propan-2-yl)-2,8,10,11,12,13-hexahydro-14H-3,5-ethenotripyrazolo[3,4-f:3′,4′-j:4″,3″-n][1,4]oxazacyclopentadecin-14-yl]ethan-1-ol], the IC50 in test [5] was 62.1 nM; in [6], 30.5 nM; in test [7], 36.4 nM; in [8] it was 9.44 nM; in test [9], 18.3 nM; in test [10], 8.44 nM. For the same compound, the IC50 in test [11] was 527 nM.

Take `Cc1c2c(nn1[C@H]1C[C@@H](N(C)CCN(C)C)C1)OCCCOc1c(cnn1C)-c1ccc3[nH]nc(c3c1)/C=C/2` [Example 102, N^1—{(1s,3s)-3-[(17E)-8,16-dimethyl-2,8,11,12-tetrahydro-10H,15H-3,5-etheno[1,5]dioxacyclopentadecino[10,11-c:15,14-c′:6,7-c′]tripyrazol-15-yl]cyclobutyl}-N^1,N—,N^2-trimethylethane-1,2-diamine]: the IC50 was determined as 62.4 nM in [5]; 25.4 nM in test [6]; 4.1 nM in [7]; 44.7 nM in [8]; 48.1 nM in [9]; 13.1 nM in [10]. The IC50 in test [11] is 94.5 nM.

`Cc1nn(C)c2c1/C=C/c1n[nH]c3ccc(cc13)-c1cnn(C)c1OCCN(C)C(=O)CO2` [Example 63, (19E)-8,12,16,18-tetramethyl-2,11,12,16-tetrahydro-8H,10H-3,5-ethenotripyrazolo[3,4-h:3′,4′-l:4″,3″- p][1,7,4]dioxazacycloheptadecin-13(14H)-one]: the IC50 in [5] worked out at 782 nM; in [6], 828 nM; in [7], 43.3 nM; in [8], 228 nM; in [9] it was 296 nM; in [10], 33.5 nM. Besides, the IC50 in [11] was more than 1000 nM.

As for `C[C@H]1CN(C)Cc2cnn(C)c2/C=C/c2n[nH]c3ccc(cc23)-c2cnn(C)c2O1` [Example 113, (10S,17E)-8,10,12,16-tetramethyl-2,10,11,12,13,16-hexahydro-8H-3,5-ethenotripyrazolo[4,3-f:3′,4′-j:4″,3″-n][1,4]oxazacyclopentadecine], the IC50 in [5] amounted to 488 nM; in [6], 96.8 nM; in [7] it was 8.66 nM; in [8], 67.4 nM; in test [9], 69.9 nM; in [10], 9.91 nM. Moreover, the IC50 in [11] worked out at 727 nM.

In the case of `Cc1c2c(nn1CCC(C)O)CN(C)C[C@H](C)Oc1c(cnn1C)-c1ccc3[nH]nc(c3c1)/C=C/2` (stereo partly drawn) [Example 95, 4-[(10S,17E)-8,10,12,16-tetramethyl-2,8,10,11,12,13-hexahydro-15H-3,5-ethenotripyrazolo[3,4-f:3′,4′-j:4″,3″-n][1,4]oxazacyclopentadecin-15-yl]butan-2-ol], the IC50 in [5] was found to be 167 nM; in test [6], 30.1 nM; in test [7], 1.95 nM; in test [8], 23 nM; in [9], 121 nM; in test [10], 4.93 nM. For the same compound, the IC50 in [11] came to 524 nM.

On to `Cc1nn([C@H]2COC[C@@H]2O)c2c1/C=C/c1n[nH]c3ccc(cc13)-c1cnn(C)c1OCCCO2` (single isomer, unassigned) [Example 76], for which the IC50 in [5] was found to be 538 nM; in [6], 156 nM; in test [7] it was 42.9 nM; in test [8] it was 90.8 nM; in [9] it was 147 nM; in test [10] it was 63.4 nM. Also, the IC50 in test [11] was determined as 233 nM.

Consider `Cc1c2c(nn1[C@H]1C[C@@H](NCCN(C)C)C1)OCCCOc1c(cnn1C)-c1ccc3[nH]nc(c3c1)/C=C/2` [Example 107, N^2-{(1s,3s)-3-[(17E)-8,16-dimethyl-2,8,11,12-tetrahydro-10H,15H-3,5-etheno[1,5]dioxacyclopentadecino[10,11-c:15,14-c′:6,7-c″]tripyrazol-15-yl]cyclobutyl}-N^1,N^1-dimethylethane-1,2-diamine], for which the IC50 in [5] was determined as 41.9 nM; in [6], 13.6 nM; in test [7], 2.28 nM; in [8] it was 42.2 nM; in test [9] it was 34.1 nM; in test [10] it was 11.3 nM. The IC50 in test [11] is 66.5 nM.
